The values that follow come from patent US20110104179A1 (priority 2009, published 2011).

In assay [1] the test system is Arginine-gingipains (P. gingivalis W50 whole cell proteases). The format is cell-based, Porphyromonas gingivalis W50.
Assay [2] deals with Arginine-gingipains (P. gingivalis ATCC 33277 whole cell proteases). The format is cell-based, Porphyromonas gingivalis ATCC 33277.
Assay [3] deals with Lysine-gingipains (P. gingivalis ATCC 33277 whole cell proteases) (Porphyromonas gingivalis, UniProt B2RLK2). The format is cell-based, Porphyromonas gingivalis ATCC 33277. The settings on record: for Activity with ATCC33277, Lys-gingipains: peptide alone 100 μM, activity ± standard deviation.
For the next assay, the target named is RgpB (Porphyromonas gingivalis, UniProt P95493). Conditions: comparison value, cited from earlier work.
[4] abbreviates: 200 μM peptide concentration (FIG. 2, Table 2).

“And” between values parts separate entries of the source, which are not always exact repeats. Equal entries are not always repeated. Where two headings read alike, the source gives them in different places. Ends that are not written are not given here.

As for LPQEVLNENLLRF [αS1-casein(11-23)], the “Protease activity (%) of the Arginine-gingipains, W50 Whole Cell Proteases” value in assay [1] worked out at 22%. Further, the “Activity with ATCC33277, Arg-gingipains” value in assay [2] is 18.00 ± 3.53. The “Protease activity (%) of the Arginine-gingipains, ATCC 33277 Whole Cell Proteases” value in assay [2] was 38% and 39% and 62%. The “inhibition of whole cell Arg-specific proteolytic activity” value in assay [2] is ~70% and 40% and ~60%. Besides, the results for the “Protease activity (%) of the Lysine-gingipains, ATCC 33277 Whole Cell Proteases” value in assay [3] (100 μM peptide), in assay [3] (200 μM peptide) and in assay [3] (300 μM peptide) were 64%, 43% and 34%, respectively. The “inhibition of whole cell Lys-specific proteolytic activity” value in assay [3] (setting [4]) and in assay [3] (concentration not given) was approximately 60% throughout. Besides, the “Activity with ATCC33277, Lys-gingipains” value in assay [3] is 2.73 ± 0.60.

Broadly, the IC50 is the concentration that inhibits the measured activity by half. As to `C[C@H]1c2cccc(O)c2C(=O)C2=C(O)[C@]3(O)C(=O)C(C(N)=O)=C(O)[C@@H](N(C)C)[C@@H]3[C@@H](O)[C@@H]21` [doxycycline], on RgpB (read-out: IC50 against RgpB), the 50% inhibitory concentration (IC50) was 3 µM.

Turning to YQEPVLGPVRGPFPIIV [β-casein(193-209)], the “Protease activity (%) of the Arginine-gingipains, W50 Whole Cell Proteases” value in assay [1] was determined as 46%. Also, the “Activity with ATCC33277, Arg-gingipains” value in assay [2] is on record as 20.03 ± 2.51. Besides, in assay [2], the “Protease activity (%) of the Arginine-gingipains, ATCC 33277 Whole Cell Proteases” value was 50% and 69%. Also, the “inhibition of whole cell Arg-specific proteolytic activity” value in assay [2] is 50% and 30% and 40-50%. Also, the “Protease activity (%) of the Lysine-gingipains, ATCC 33277 Whole Cell Proteases” value was determined as 71% in assay [3] (100 μM peptide), 59% in assay [3] (200 μM peptide) and 49% in assay [3] (300 μM peptide). Moreover, the “inhibition of whole cell Lys-specific proteolytic activity” value is reported as 50% in assay [3] (setting [4]) and 40-50% in assay [3] (concentration not given). Moreover, the “Activity with ATCC33277, Lys-gingipains” value in assay [3] came out at 3.03 ± 1.20.

For YQEPVLGPVRGPF [β-casein(193-205)], the “inhibition of whole cell Lys-specific proteolytic activity” value in assay [3] (concentration not given) is given as “not as potent”.

As a reminder, the Ki is the dissociation constant of the complex between target and ligand, obtained from inhibition or displacement. Turning to `[H]/N=C(\N/C(=N/[H])NCCCCCCNC(=N)NC(=N)Nc1ccc(Cl)cc1)Nc1ccc(Cl)cc1` [chlorhexidine], the Ki at RgpB (read-out: RgpB Ki) is 262 µM.
